For one assay, the target named is T1, human Gcg receptor (Homo sapiens, UniProt P47871).
T1 construct: expressed in transfected cells; crude membranes
Briefly: [125I]-Glucagon binding (SPA), human Gcg receptor. To be noted: read-out: hGLcgR Ki, nM (SEM, n). A digest of the protocol: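 Cell pellets were lysed in hypotonic Tris buffer, pH 7.5, homogenized, and spun at low then high speed to give crude membranes. Ki was derived from the fitted IC50.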

The target of a further assay is T2, human GIP receptor (Homo sapiens, UniProt P48546).
T2 construct: expressed in transfected cells; crude membranes
T2 sequence (P48546 22-466): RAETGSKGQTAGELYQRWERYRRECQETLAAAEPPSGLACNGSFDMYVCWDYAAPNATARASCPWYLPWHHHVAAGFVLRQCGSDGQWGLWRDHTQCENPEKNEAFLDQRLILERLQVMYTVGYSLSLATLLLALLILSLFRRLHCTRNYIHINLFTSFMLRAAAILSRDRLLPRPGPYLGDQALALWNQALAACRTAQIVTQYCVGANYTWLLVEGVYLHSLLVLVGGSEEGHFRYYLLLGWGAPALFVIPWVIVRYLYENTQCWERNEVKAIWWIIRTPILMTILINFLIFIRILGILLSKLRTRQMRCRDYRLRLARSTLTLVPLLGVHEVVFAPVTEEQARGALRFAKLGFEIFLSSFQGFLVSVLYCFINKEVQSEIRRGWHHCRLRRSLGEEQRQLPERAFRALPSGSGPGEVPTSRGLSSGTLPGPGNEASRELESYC
Briefly: [125I]-GIP binding (SPA), human GIP receptor. To be noted: read-out: hGIPR Ki, nM (SEM, n).

The target in assay [1] is T3, gastric inhibitory peptide receptor (GIPR) (Homo sapiens, UniProt P48546).
T3 sequence (P48546 22-466): T2 sequence (P48546 22-466)
Briefly: cAMP pharmacological functional assay in presence of casein, hGIPR. To be noted: HEK293 cells expressing hGIPR, 0.1% Casein, geometric mean; read-out: hGIPR cAMP Rel EC50 nM (SEM, n). In kind it is cell-based.

Assay [2] concerns the target human GLP-1 receptor (GLP-1R) (Homo sapiens, UniProt P43220). In words: cAMP pharmacological functional assay in presence of casein, hGLP-1R. It counts as cell-based. To be noted: HEK293 cells expressing hGLP-1R, 0.1% Casein, geometric mean; read-out: hGLP1R cAMP Rel EC50 nM (SEM, n).
For another assay, the target named is human GLP-1R (Homo sapiens, UniProt P43220). In words: [125I]-GLP-1 binding (SPA), human GLP-1 receptor. Details: expressed in transfected cells; crude membranes. The conditions noted are these: read-out: hGLP1R Ki, (nM) (SEM, n). In short, it runs like this: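 Crude-membrane binding assay; one membrane prep included 1 mM MgCl2 and 25 units/ml DNAse I during lysis. Assay buffer at pH 7.4 contains 0.1% (w/v) bacitracin and 0.003% (w/v) TWEEN-20. Ki is reported as geometric mean.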
Chain of human GLP-1R (P43220 24-463): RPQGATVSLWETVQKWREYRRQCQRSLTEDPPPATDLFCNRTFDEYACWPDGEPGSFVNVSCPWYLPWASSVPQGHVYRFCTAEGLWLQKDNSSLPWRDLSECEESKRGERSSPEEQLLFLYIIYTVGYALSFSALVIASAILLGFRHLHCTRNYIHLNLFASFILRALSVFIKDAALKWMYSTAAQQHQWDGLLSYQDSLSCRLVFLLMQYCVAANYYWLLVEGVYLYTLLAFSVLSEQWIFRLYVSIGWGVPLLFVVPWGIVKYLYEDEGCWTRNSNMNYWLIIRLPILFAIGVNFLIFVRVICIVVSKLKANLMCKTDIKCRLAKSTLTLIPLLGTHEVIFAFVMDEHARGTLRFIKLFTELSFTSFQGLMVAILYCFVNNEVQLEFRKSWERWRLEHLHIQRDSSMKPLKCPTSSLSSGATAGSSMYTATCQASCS

This is an account of results in patent US12252524B2, “GIP/GLP1 co-agonist compounds” (Eli Lilly and Company, priority 2018, dated 2025).

Numbered stars: 1 amine (or outer) side, 2 acyl side, 3 side chain; on linkers, the order of the positions; unused ones are H or OH. Square brackets hold non-standard residues; d marks the D form. Side chains are listed from the residue outwards. Peptide text beside a SMILES is read from it. * marks the point of attachment. C20 diacid = O=C(O)CCCCCCCCCCCCCCCCCCC(=O)*; γGlu = O=C(O)[C@H](CCC(=O)[*:2])N[*:1]; αMeF = C[C@](N)(Cc1ccccc1)C(=O)O; αMeL = CC(C)C[C@](C)(N)C(=O)O; AEEA = NCCOCCOCC(=O)O; Aib = CC(C)(N)C(=O)O

T1 sequence (P47871 26-477): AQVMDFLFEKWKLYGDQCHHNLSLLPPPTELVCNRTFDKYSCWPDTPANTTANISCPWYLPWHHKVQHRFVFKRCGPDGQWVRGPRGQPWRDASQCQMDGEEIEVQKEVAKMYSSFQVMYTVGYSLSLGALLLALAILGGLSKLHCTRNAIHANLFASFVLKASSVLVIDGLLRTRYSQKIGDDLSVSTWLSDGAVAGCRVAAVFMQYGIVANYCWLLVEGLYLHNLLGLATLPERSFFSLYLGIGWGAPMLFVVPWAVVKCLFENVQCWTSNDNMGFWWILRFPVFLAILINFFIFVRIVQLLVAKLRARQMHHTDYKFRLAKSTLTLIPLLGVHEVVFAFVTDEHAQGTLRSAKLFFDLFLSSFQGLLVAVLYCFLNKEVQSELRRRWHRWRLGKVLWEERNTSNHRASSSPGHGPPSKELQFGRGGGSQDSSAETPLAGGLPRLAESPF
Chain of human GLP-1 receptor (GLP-1R) (P43220 24-463): as the sequence (P43220 24-463) above

As to `CC[C@H](C)[C@H](NC(=O)[C@H](CC(C)C)NC(=O)[C@H](Cc1ccc(O)cc1)NC(=O)[C@H](CCC(=O)O)NC(=O)[C@@H](NC(=O)[C@H](Cc1ccccc1)NC(=O)[C@H](C)NC(=O)C(C)(C)NC(=O)[C@H](CCC(N)=O)NC(=O)[C@H](C)NC(=O)[C@H](CCCCNC(=O)COCCOCCNC(=O)COCCOCCNC(=O)CC[C@H](NC(=O)CC[C@H](NC(=O)CCCCCCCCCCCCCCCCCCC(=O)O)C(=O)O)C(=O)O)NC(=O)[C@H](CCCCN)NC(=O)[C@H](CC(=O)O)NC(=O)[C@H](CC(C)C)NC(=O)[C@](C)(CC(C)C)NC(=O)[C@@H](NC(=O)[C@H](CO)NC(=O)[C@H](Cc1ccc(O)cc1)NC(=O)[C@H](CC(=O)O)NC(=O)[C@H](CO)NC(=O)[C@@H](NC(=O)[C@](C)(Cc1ccccc1)NC(=O)[C@@H](NC(=O)CNC(=O)[C@H](CCC(=O)O)NC(=O)C(C)(C)NC(=O)[C@@H](N)Cc1ccc(O)cc1)[C@@H](C)O)[C@@H](C)O)[C@@H](C)CC)[C@@H](C)CC)C(=O)N[C@@H](CCC(=O)O)C(=O)NCC(=O)NCC(=O)N1CCC[C@H]1C(=O)N[C@@H](CO)C(=O)N[C@@H](CO)C(=O)NCC(=O)N[C@@H](C)C(=O)N1CCC[C@H]1C(=O)N1CCC[C@H]1C(=O)N1CCC[C@H]1C(=O)N[C@@H](CO)C(N)=O` [Example 125], the Ki at human Gcg receptor worked out at 54.4 nM; on human GIP receptor, 0.0624 nM; at human GLP-1R, 3.19 nM. Further, the EC50 in assay [1] is 0.0381 nM; in assay [2] it was 0.0478 nM.
Turning to `CC[C@H](C)[C@H](NC(=O)[C@H](CC(C)C)NC(=O)[C@H](Cc1ccc(O)cc1)NC(=O)[C@H](CCC(=O)O)NC(=O)[C@@H](NC(=O)[C@H](Cc1ccccc1)NC(=O)[C@H](C)NC(=O)C(C)(C)NC(=O)[C@H](CCC(N)=O)NC(=O)[C@H](C)NC(=O)[C@H](CCCCNC(=O)COCCOCCNC(=O)COCCOCCNC(=O)CC[C@H](NC(=O)CCCCCCCCCCCCCCCCCCC(=O)O)C(=O)O)NC(=O)[C@H](CCCCN)NC(=O)[C@H](CC(=O)O)NC(=O)[C@H](CC(C)C)NC(=O)[C@](C)(CC(C)C)NC(=O)[C@@H](NC(=O)[C@H](CO)NC(=O)[C@H](Cc1ccc(O)cc1)NC(=O)[C@H](CC(=O)O)NC(=O)[C@H](CO)NC(=O)[C@@H](NC(=O)[C@](C)(Cc1ccccc1)NC(=O)[C@@H](NC(=O)CNC(=O)[C@H](CCC(=O)O)NC(=O)C(C)(C)NC(=O)[C@@H](N)Cc1ccc(O)cc1)[C@@H](C)O)[C@@H](C)O)[C@@H](C)CC)[C@@H](C)CC)C(=O)N[C@@H](CCC(=O)O)C(=O)N[C@@H](C)C(=O)NCC(=O)N1CCC[C@H]1C(=O)N[C@@H](CO)C(=O)N[C@@H](CO)C(=O)NCC(=O)N[C@@H](C)C(=O)N1CCC[C@H]1C(=O)N1CCC[C@H]1C(=O)N1CCC[C@H]1C(=O)N[C@@H](CO)C(N)=O` [Example 126] (H-Y[Aib]EGT[αMeF]TSDYSI[αMeL]LDKK([AEEA-AEEA-γGlu-C20 diacid])AQ[Aib]AFIEYLIEAGPSSGAPPPS-NH2; N-terminus assumed), the Ki came out at 101 nM at human Gcg receptor, 0.0644 nM at human GIP receptor and 1.46 nM on human GLP-1R. The figures for the EC50 in assay [1] and in assay [2] were 0.0685 nM and 0.0715 nM, respectively.
`CC[C@H](C)[C@H](NC(=O)[C@H](CC(C)C)NC(=O)[C@H](Cc1ccc(O)cc1)NC(=O)[C@H](CCC(=O)O)NC(=O)[C@@H](NC(=O)[C@H](Cc1ccccc1)NC(=O)[C@H](C)NC(=O)C(C)(C)NC(=O)[C@H](CCC(N)=O)NC(=O)[C@H](C)NC(=O)[C@H](CCCCNC(=O)COCCOCCNC(=O)COCCOCCNC(=O)CC[C@H](NC(=O)CCCCCCCCCCCCCCCCCCC(=O)O)C(=O)O)NC(=O)[C@H](CCCCN)NC(=O)[C@H](CC(=O)O)NC(=O)[C@H](CC(C)C)NC(=O)[C@H](CC(C)C)NC(=O)[C@@H](NC(=O)[C@H](CO)NC(=O)[C@@H](NC(=O)[C@H](CC(=O)O)NC(=O)[C@H](CO)NC(=O)[C@@H](NC(=O)[C@](C)(Cc1ccccc1)NC(=O)[C@@H](NC(=O)CNC(=O)[C@H](CCC(=O)O)NC(=O)C(C)(C)NC(=O)[C@@H](N)Cc1ccc(O)cc1)[C@@H](C)O)[C@@H](C)O)[C@@H](C)CC)[C@@H](C)CC)[C@@H](C)CC)C(=O)N[C@@H](CCC(=O)O)C(=O)NCC(=O)NCC(=O)N1CCC[C@H]1C(=O)N[C@@H](CO)C(=O)N[C@@H](CO)C(=O)NCC(=O)N[C@@H](C)C(=O)N1CCC[C@H]1C(=O)N1CCC[C@H]1C(=O)N1CCC[C@H]1C(=O)N[C@@H](CO)C(N)=O` [Example 127] (H-Y[Aib]EGT[αMeF]TSDISILLDKK([AEEA-AEEA-γGlu-C20 diacid])AQ[Aib]AFIEYLIEGGPSSGAPPPS-NH2; N-terminus assumed): the values for the Ki at human Gcg receptor, at human GIP receptor and on human GLP-1R were 43.6 nM, 0.126 nM and 1.86 nM, respectively. The concentration giving a half-maximal response (EC50) stood at 0.158 nM in assay [1] and 0.145 nM in assay [2].
The corresponding values for `CC[C@H](C)[C@H](NC(=O)[C@H](CC(C)C)NC(=O)[C@H](Cc1ccc(O)cc1)NC(=O)[C@H](CCC(=O)O)NC(=O)[C@@H](NC(=O)[C@H](Cc1ccccc1)NC(=O)[C@H](C)NC(=O)C(C)(C)NC(=O)[C@H](CCC(N)=O)NC(=O)[C@H](C)NC(=O)[C@H](CCCCNC(=O)COCCOCCNC(=O)COCCOCCNC(=O)CC[C@H](NC(=O)CCCCCCCCCCCCCCCCCCC(=O)O)C(=O)O)NC(=O)[C@H](CCCCN)NC(=O)[C@H](CC(=O)O)NC(=O)[C@H](CC(C)C)NC(=O)[C@H](CC(C)C)NC(=O)[C@@H](NC(=O)[C@H](CO)NC(=O)[C@H](Cc1c[nH]cn1)NC(=O)[C@H](CC(=O)O)NC(=O)[C@H](CO)NC(=O)[C@@H](NC(=O)[C@](C)(Cc1ccccc1)NC(=O)[C@@H](NC(=O)CNC(=O)[C@H](CCC(=O)O)NC(=O)C(C)(C)NC(=O)[C@@H](N)Cc1ccc(O)cc1)[C@@H](C)O)[C@@H](C)O)[C@@H](C)CC)[C@@H](C)CC)C(=O)N[C@@H](CCC(=O)O)C(=O)NCC(=O)NCC(=O)N1CCC[C@H]1C(=O)N[C@@H](CO)C(=O)N[C@@H](CO)C(=O)NCC(=O)N[C@@H](C)C(=O)N1CCC[C@H]1C(=O)N1CCC[C@H]1C(=O)N1CCC[C@H]1C(=O)N[C@@H](CO)C(N)=O` [Example 128] (H-Y[Aib]EGT[αMeF]TSDHSILLDKK([AEEA-AEEA-γGlu-C20 diacid])AQ[Aib]AFIEYLIEGGPSSGAPPPS-NH2) are 433 nM, 0.0625 nM, 1.88 nM, 0.0694 nM and 0.0924 nM.
The corresponding values for `CC[C@H](C)[C@H](NC(=O)[C@H](CC(C)C)NC(=O)[C@H](Cc1ccc(O)cc1)NC(=O)[C@H](CCC(=O)O)NC(=O)[C@@H](NC(=O)[C@H](Cc1ccccc1)NC(=O)[C@H](C)NC(=O)C(C)(C)NC(=O)[C@H](CCC(N)=O)NC(=O)[C@H](C)NC(=O)[C@H](CCCCNC(=O)COCCOCCNC(=O)COCCOCCNC(=O)CC[C@H](NC(=O)CCCCCCCCCCCCCCCCCCC(=O)O)C(=O)O)NC(=O)[C@H](CCCCN)NC(=O)[C@H](CC(=O)O)NC(=O)[C@H](CC(C)C)NC(=O)[C@H](CC(C)C)NC(=O)[C@@H](NC(=O)[C@H](CO)NC(=O)[C@H](CC(C)C)NC(=O)[C@H](CC(=O)O)NC(=O)[C@H](CO)NC(=O)[C@@H](NC(=O)[C@](C)(Cc1ccccc1)NC(=O)[C@@H](NC(=O)CNC(=O)[C@H](CCC(=O)O)NC(=O)C(C)(C)NC(=O)[C@@H](N)Cc1ccc(O)cc1)[C@@H](C)O)[C@@H](C)O)[C@@H](C)CC)[C@@H](C)CC)C(=O)N[C@@H](CCC(=O)O)C(=O)NCC(=O)NCC(=O)N1CCC[C@H]1C(=O)N[C@@H](CO)C(=O)N[C@@H](CO)C(=O)NCC(=O)N[C@@H](C)C(=O)N1CCC[C@H]1C(=O)N1CCC[C@H]1C(=O)N1CCC[C@H]1C(=O)N[C@@H](CO)C(N)=O` [Example 129] (H-Y[Aib]EGT[αMeF]TSDLSILLDKK([AEEA-AEEA-γGlu-C20 diacid])AQ[Aib]AFIEYLIEGGPSSGAPPPS-NH2) are 14.9 nM, 0.0278 nM, 1 nM, 0.106 nM and 0.121 nM.
